Where two headings read alike, the source gives them in different places.

This assay concerns the target T1, acetylcholine muscarinic M1 receptor (hM1) (Homo sapiens, UniProt P11229).
T1 construct: expressed in transfected cells; host or cells: CHOnfat cells (CHO, NFAT reporter background), Geneticin-selected; b186 also calls them CHOK1/hM1
T1 sequence (P11229 1-460): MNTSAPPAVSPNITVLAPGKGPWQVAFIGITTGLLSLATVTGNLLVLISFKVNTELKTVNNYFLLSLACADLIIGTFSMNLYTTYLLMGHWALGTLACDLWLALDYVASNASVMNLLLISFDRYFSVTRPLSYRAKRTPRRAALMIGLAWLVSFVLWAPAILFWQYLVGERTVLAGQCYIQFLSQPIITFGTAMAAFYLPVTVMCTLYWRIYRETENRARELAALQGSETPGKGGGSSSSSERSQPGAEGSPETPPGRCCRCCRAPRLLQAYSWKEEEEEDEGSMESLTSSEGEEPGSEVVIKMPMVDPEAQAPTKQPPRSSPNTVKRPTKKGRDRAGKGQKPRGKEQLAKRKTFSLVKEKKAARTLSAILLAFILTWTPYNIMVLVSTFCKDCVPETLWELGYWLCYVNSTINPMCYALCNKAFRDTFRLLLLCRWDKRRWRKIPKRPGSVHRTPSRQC
Nature of the assay: muscarinic FLIPR assay: intracellular calcium in CHOnfat/hM1 cells, potentiation of EC20 acetylcholine. The format is cell-based. As for the experimental part:
The assay studies the effect of one or several concentrations of test compounds on basal or acetylcholine-stimulated Ca^2+ levels using FLIPR.
Compounds are prepared and subjected to a preincubation period of 4 min. Thereafter, a single EC20 concentration of acetylcholine is added to each well (3 nM final). The intracellular Ca^2+ level of each sample is measured and compared to an acetylcholine control to determine any modulatory activity.
Cells: CHOnfat/hM1, hM2, hM3 or hM4 cells are plated 24 hr before the assay at a density of 18,000 cells/well (100 μL) in a 384 well plate. CHOnfat/hM1 and CHOnfat/hM3 Growth Medium: 90% DMEM (Hi Glucose); 10% HI FBS; 2 mM L-glutamine; 0.1 mM NEAA; Pen-Strep; and 1 mg/ml Geneticin, are added. For M2Gqi5CHOnfat and M4Gqi5CHOnfat cells, an additional 600 ug/ml hygromycin is added.
Equipment: 384 well plate, 120 μL addition plate; 96-well Whatman 2 ml Uniplate Incubator, 37° C., 5% CO2; Skatron EMBLA-384 Plate Washer; Multimek Pipetting System; Genesis Freedom 200 System; Mosquito System; Temo Nanolitre Pipetting System; and FLIPR^384 Fluorometric Imaging Plate Reader System are used.
Buffers. Assay Buffer: Hanks Balanced Salt Solution, with 20 mM Hepes, 2.5 mM Probenecid (Sigma P-8761) first dissolved in 1 N NaOH, 1% Bovine Serum Albumin (Sigma A-9647). Dye Loading Buffer: Assay Buffer plus 1% Fetal Bovine Serum and Fluo-4AM/Pluronic Acid Mixture. 2 mM Fluo-4AM ester stock in DMSO (Molecular Probes F-14202) Concentration of 2 μM in buffer for a final concentration of 1 μM in Assay. 20% Pluronic Acid Solution stock, with concentration of 0.04% in Buffer, 0.02% in Assay.
65 μL of 2 mM Fluo-4AM are mixed with 130 μL of 20% Pluronic Acid. The resulting solution and 650 μL FBS is added to the assay buffer for a total volume of 65 mL. Positive Controls: 4-Br-A23187: 10 mM in DMSO; final concentration 10 μM. Acetylcholine: 10 mM in water, working stock at both 20 μM and 30 μM in assay buffer, final concentration of 10 μM. This is used to check the maximum stimulation of the CHOK1/hM1 cells. 20 μM (2×) acetylcholine is added in the preincubation part of the assay, and the 30 μM (3×) stock is added in the second part. (EC20) Acetylcholine: 10 mM in water, working stock of 9 nM (3×), and final concentration in assay is 3 nM. This is used after the preincubation with test compounds. Addition of the EC20 Acetylcholine to each well with a test compound will ascertain any modulator activity. 24 wells contain 3 nM Acetylcholine alone as a control.
Screening Plate Compounds are titrated in 96-well plates (columns 2-11), 100% DMSO, started at a concentration of 15 mM (150× stock concentration), and 3-fold serial dilutions using Genesis Freedom200 System. Four 96-well plates are combined into a 384-well plate using Mosquito Nanolitre Pipetting System by transferring 1 μl of serial diluted compounds to each well, and 1 mM acetylcholine (100× stock concentration) were added as a control. Using Temo, 49 μl assay buffer is added to each well of the 384-well plate right before assay.
In a 96-well Whatman 2 ml Uniplate, 9 nM Acetylcholine (3×) is pipetted into wells corresponding to the screening compounds, and into control wells. The 30 μM acetylcholine control (3×) is added into control wells, and the 3× agonist plate is transferred into a 384 well plate.
Cells are washed three times with 100 μL of buffer, leaving 30 μL of buffer in each well. Using Multimek, 30 μL of Dye Loading Buffer is added into each well and incubated at 37° C., 5% CO2 for up to one hr.
After 60 min, the cells are washed three times with 100 μL of buffer, leaving 30 μL of buffer in each well. The cell plate, screening plate, and agonist addition plates are placed on the platform in the FLIPR and the door closed. A signal test to check background fluorescence and basal fluorescence signal is performed. Laser intensity is adjusted if necessary. […]
On the technique in general: Calcium assays in cells follow changes in intracellular calcium, usually with a dye or a luminescent sensor.

Setting [1] is: Table 2, EC20 acetylcholine (3 nM final), read-out: M1 IP (inflection point).
The mark [2] stands for this setting: Table 1, EC20 acetylcholine (3 nM final), read-out: H Pot.

`O=C(N[C@H]1CCOC[C@@H]1O)c1cc(Cc2ccc(Cl)nc2)c2c(n1)CCCC2` [Example 1, 1,5-Anhydro-3[({4-[(6-chloropyridin-3-yl)methyl]-5,6,7,8-tetrahydroquinolin-2-yl}carbonyl)amino]-2,3-dideoxy-L-threo-pentitol]: the EC50 under setting [1] came to 102 nM. With `O=C(N[C@H]1CCOC[C@@H]1O)c1cc(Cc2ccc(-c3ccc(F)nc3)nc2)c2c(n1)CCCC2` [Compound 17], the EC50 under setting [2] came out at 15 nM.

Consider `O=C(N[C@H]1CCOC[C@@H]1O)c1cc(Cc2ccc(-c3cncc(F)c3)nc2)c2c(n1)CCCC2` [Compound 19], for which the EC50 under setting [2] came out at 23 nM.

Take `CC(=O)N1CC=C(Cc2cc(C(=O)N[C@H]3CCOC[C@@H]3O)nc3c2CCCC3)CC1` [Example 4, 3-[{(4-[(1-Acetyl-1,2,3,6-tetrahydropyridin-4-yl)methyl]-5,6,7,8-tetrahydroquinolin-2-yl}carbonyl)amino]-1,5-anhydro-2,3-dideoxy-L-threo-pentitol]: the EC50 under setting [1] was found to be 654 nM. Turning to `Cc1ccc(-c2ccc(Cc3cc(C(=O)N[C@H]4CCOC[C@@H]4O)nc4c3CCCC4)cn2)cn1` [Compound 20], under setting [2], the EC50 is 7 nM. On to `CSc1ccc(Cc2cc(C(=O)N[C@H]3CCCC[C@@H]3O)nc3c2CCCC3)cn1` [Example 2, N-[(1S,2S)-2-Hydroxycyclohexyl]-4-{[6-(methylsulfanyl)pyridin-3-yl]methyl}-5,6,7,8-tetrahydroquinoline-2-carboxamide], for which the EC50 under setting [1] worked out at 88 nM.

Consider `O=C(NC1CCOCC1O)c1cc(Cc2ccn3ccnc3c2)c2c(n1)CCCC2` (stereo not drawn) [Compound 13], for which the EC50 under setting [2] worked out at 80 nM. For `COc1ccc(Cc2cc(C(=O)N[C@H]3CCOC[C@@H]3O)nc3c2CCCC3)cn1` [Example 3, 1,5-Anhydro-2,3-dideoxy-3-[({4-[(6-methoxypyridin-3-yl)methyl]-5,6,7,8-tetrahydroquinolin-2-yl}carbonyl)amino]-L-threo-pentitol], under setting [1], the EC50 is 98 nM. Take `O=C(N[C@H]1CCOC[C@@H]1O)c1cc(Cc2cnc3ccccc3c2)c2c(n1)CCCC2` [Compound 15]: the EC50 under setting [2] turned out to be 11 nM. The same measure, in the same setting: the figure for `O=C(N[C@H]1CCCC[C@@H]1O)c1cc(Cc2ccc(-c3ccccc3)nc2)c2c(n1)CCCC2` [Compound 11] is 26 nM; for `O=C(N[C@H]1CCCC[C@@H]1O)c1cc(Cc2ccc(-c3ccc(F)nc3)nc2)c2c(n1)CCCC2` [Compound 10] it is 36 nM. Same read-out and setting: the figure for `O=C(N[C@H]1CCCC[C@@H]1O)c1cc(Cc2ccc(Cl)nc2)c2c(n1)CCCC2` [Compound 7] is 129 nM; for `O=C(N[C@H]1CCCC[C@@H]1O)c1cc(Cc2ccc(-c3cccnc3)nc2)c2c(n1)CCCC2` [Compound 9] it is 15 nM. As for `O=C(N[C@H]1CCOC[C@@H]1O)c1cc(Cc2ccc(-c3cnccn3)nc2)c2c(n1)CCCC2` [Example 6, 1,5-Anhydro-2,3-dideoxy-3-{[(4-{[6-(pyrazin-2-yl)pyridine-3-yl]methyl}-5,6,7,8-tetrahydroquinolin-2-yl)carbonyl]amino}-L-threo-pentitol], under setting [1], the EC50 turned out to be 115 nM. As to `O=C(N[C@H]1CCOC[C@@H]1O)c1cc(Cc2ccnc3ccccc23)c2c(n1)CCCC2` [Compound 14], the EC50 under setting [2] was determined as 33 nM. On the same count and under the same terms, the figure for `CC(=O)N1CCC(Cc2cc(C(=O)N[C@H]3CCOC[C@@H]3O)nc3c2CCCC3)CC1` [Compound 24] is 2240 nM. As to `CC(C)(C)OC(=O)N1CC=C(Cc2cc(C(=O)N[C@H]3CCOC[C@@H]3O)nc3c2CCCC3)CC1` [Compound 23], the EC50 under setting [2] turned out to be 620 nM. Same read-out and setting: the figure for `COc1cncc(-c2ccc(Cc3cc(C(=O)N[C@H]4CCOC[C@@H]4O)nc4c3CCCC4)cn2)c1` [Compound 18] is 7 nM. `Cn1cc(-c2ccc(Cc3cc(C(=O)N[C@H]4CCOC[C@@H]4O)nc4c3CCCC4)cn2)cn1` [Example 5, 1,5-Anhydro-2,3-dideoxy-3-{[(4-{[6-(1-methyl-1H-pyrazol-4-yl)pyridine-3-yl]methyl}-5,6,7,8-tetrahydroquinolin-2-yl)carbonyl}amino]-L-threo-pentitol]: the EC50 under setting [1] is 4 nM. As to `COc1cc(Cc2cc(C(=O)N[C@H]3CCOC[C@@H]3O)nc3c2CCCC3)ccn1` [Compound 12], the EC50 under setting [2] came to 120 nM. On the same count and under the same terms, the figure for `COc1ccc(-c2ccc(Cc3cc(C(=O)N[C@H]4CCOC[C@@H]4O)nc4c3CCCC4)cn2)cn1` [Compound 22] is 17 nM; for `O=C(N[C@H]1CCOC[C@@H]1O)c1cc(Cc2ccc(-c3cccnc3)nc2)c2c(n1)CCCC2` [Compound 16] it is 11 nM; for `Cc1cncc(-c2ccc(Cc3cc(C(=O)N[C@H]4CCOC[C@@H]4O)nc4c3CCCC4)cn2)c1` [Compound 21] it is 6 nM. As to `COc1ccc(-c2ccc(Cc3cc(C(=O)N[C@H]4CCCC[C@@H]4O)nc4c3CCCC4)cn2)cn1` [Compound 8], under setting [2], the EC50 stood at 18 nM.

These data come from patent publication US8815902B2, “Tetrahydroquinoline amide M1 receptor positive allosteric modulators” (Merck Sharp & Dohme Corp., priority 2010, dated 2014).
